Laboratory results published in article PMC5329948, “Caspase vinyl sulfone small molecule inhibitors prevent axonal degeneration in human neurons and reverse cognitive impairment in Caspase-6-overexpressing mice” (Molecular Neurodegeneration, 2017).

Columns and labels:
[1] = target: T1, recombinant Caspase-9 (Homo sapiens, UniProt P55211); assay: Caspase Inhibitor Drug Screening Kit (BioVision), LEHD-AFC substrate; assay type: biochemical; settings: not active site titrated
T1 construct: purchased BioVision
Procedure: The half-maximal inhibitory concentrations (IC50) for NWL inhibitors (Patent publication # WO/2009/140765, WO/2010/133000, and WO/2012/140500) was determined by incubating 0 to 20 μM NWL-117 and NWL-154 with 20 nM of active site-titrated Casp6 in SB at room temperature for 5 minutes. Then, 10 μM Ac-VEID-AFC was added and fluorescence measured for 20 min at 37 °C as described above. New World Laboratories performed the IC50 determination for NWL inhibitors dissolved in dimethyl sulfoxide (DMSO) against recombinant Casp1-10 using the Caspase Inhibitor Drug Screening Kits (BioVision, San Francisco, CA) following the manufacturer’s instructions and the preferred substrates for the caspases (Caspase-1: WAD-AFC, Caspase-2: VDVAD-AFC, Caspase-3: DEVD-AFC, Caspase-4: LEVD-AFC, Caspase-5: WEHD-AFC, Casp6:VEID-AFC, Caspase-7: DEVD-AFC, Caspase-8: IETD-AFC, Caspase-9: LEHD-AFC, Caspase-10: AEVD-AFC). In transfected HCT116 cells, 0 to 100 μM NWL inhibitors were added in the culture media and left on the cells for 2 h. Cells were washed once with 1 mL ice-cold PBS, incubated on ice for 5 min with 200 μL cell lysis buffer (CLB) (50 mM HEPES, 0.1% CHAPS, 0.1 mM EDTA), and gently scraped off. Protein concentrations were determined by Bradford assay (BioRad, Mississauga, ON, CA) by measuring the absorbance at 595 nm using the BioTek Synergy H4 plate reader. […]

[2] = target: T2, Casp6 in serum-deprived primary human neurons (Homo sapiens, UniProt P55212); assay: Casp6 activity in serum-deprived primary human neurons (VEIDase, FLICA, TubΔCasp6); assay type: cell-based; settings: 100 μM
T2 construct: endogenous in cells; host or cells: primary human CNS neurons from cortical tissue, serum-deprived
Procedure: HCT116: Human colon carcinoma (HCT116) cells (ATCC, Manassas, VA, USA) were cultured in McCoy’s 5A modified media (Thermo Fisher Scientific, Waltham, MA, USA) supplemented with 10% fetal bovine serum (Thermo Fisher Scientific, Waltham, MA, USA) and transfected with 1 μg of pCep4βCasp6p20p10 mixed with 8 μg of polyethyleneimine (Polysciences Inc., Warrington, PA, USA). Protein expression was allowed for 24 h before treating with vehicle (PBS), 100 μM NWL-117, or 100 μM NWL-154 for 2 h. For NWL inhibitor kinetic experiments, 100 μM of NWL-117 or NWL-154 was added at 120, 90, 60, 30, 15, or 0 min before harvest. […]
Recombinant or extracted cellular Casp6 activity: Casp6 activity was assessed by in vitro fluorogenic assays using Ac-Val-Glu-Ile-Asp-(7-Amino-4-trifluoromethylcouramin) (Ac-VEID-AFC: Enzo LifeSciences, NY, USA) as the Casp6 substrate. The activity was measured in Stennicke’s buffer (SB) (20 mM piperazine-N, N-bis (2-ethanesulfonic acid) (PIPES: BioShop Canada Inc, Burlington, Ontario, CA) pH 7.2, 30 mM NaCl, 1 mM ethylenediaminetetraacetic acid (EDTA), 0.1% 3-[(3-cholamidopropyl)-dimethylammonio]-2-hydroxy-1-propanesulfonic acid (CHAPS), 10% sucrose). […] Fluorescence units were converted to the moles of AFC released based on a standard curve of 0–625 picomoles of free AFC. Cleavage rates were calculated from the linear phase of the assay. […]

T2 sequence (P55212 24-293): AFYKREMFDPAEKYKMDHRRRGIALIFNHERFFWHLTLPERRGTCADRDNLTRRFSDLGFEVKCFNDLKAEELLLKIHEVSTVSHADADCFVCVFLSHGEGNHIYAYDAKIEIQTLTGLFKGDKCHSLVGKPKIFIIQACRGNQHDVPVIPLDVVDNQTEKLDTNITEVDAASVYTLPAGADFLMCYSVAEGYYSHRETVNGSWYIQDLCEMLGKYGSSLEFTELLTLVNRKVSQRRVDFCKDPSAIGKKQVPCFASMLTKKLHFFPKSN
T1 sequence (P55211 whole entry): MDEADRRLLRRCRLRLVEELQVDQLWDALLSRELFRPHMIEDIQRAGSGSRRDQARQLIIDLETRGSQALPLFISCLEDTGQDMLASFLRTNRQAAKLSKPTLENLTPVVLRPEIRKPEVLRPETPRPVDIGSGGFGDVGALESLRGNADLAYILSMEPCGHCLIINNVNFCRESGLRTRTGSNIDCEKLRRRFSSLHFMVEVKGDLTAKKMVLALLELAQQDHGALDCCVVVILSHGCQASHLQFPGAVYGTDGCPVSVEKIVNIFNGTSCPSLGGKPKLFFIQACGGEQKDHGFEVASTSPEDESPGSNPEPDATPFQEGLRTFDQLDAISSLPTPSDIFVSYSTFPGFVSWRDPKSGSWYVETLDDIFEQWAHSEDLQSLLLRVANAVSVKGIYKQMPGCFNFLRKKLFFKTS

Row | Structure (SMILES) | IC50 [1] [µM] | Casp6 fluorogenic and FLICA-measured activity and TubΔCasp6 [2]
1 | CCC(C)[C@H](NC(=O)[C@H](CCC(=O)O)NC(=O)[C@@H](NC(=O)OCc1ccccc1)C(C)C)C(=O)N[C@H](/C=C(\Cl)S(C)(=O)=O)CC(=O)O (stereo partly shown) [NWL-154] | 6.4 | decreased
2 | CCC(C)[C@H](NC(=O)[C@H](CCC(=O)O)NC(=O)[C@@H](NC(=O)OCc1ccccc1)C(C)C)C(=O)N[C@H](/C=C/S(C)(=O)=O)CC(=O)O (stereo partly shown) [NWL-117] | 0.79 | decreased
